Assay [1] relates to HeLa cells. Put plainly: Proliferation assay (Method 3), HeLa. Type of assay: cell-based. Particulars: 96 h, human cervical tumour, 4 days, crystal violet, read-out: Inhibition of HeLa cell proliferation IC50. The procedure: (§1) Cultivated tumour cells (HeLa, human cervical tumour cells, ATCC CCL-2; NCI-H460, human non-small cell lung carcinoma cells, ATCC HTB-177; A2780, human ovarian carcinoma cells, ECACC #93112519; DU 145, hormone-independent human prostate carcinoma cells, ATCC HTB-81; HeLa-MaTu-ADR, multidrug-resistant human cervical carcinoma cells, EPO-GmbH Berlin; Caco-2, human colorectal carcinoma cells, ATCC HTB-37; B16F10, mouse melanoma cells, ATCC CRL-6475) were plated at a density of 5,000 cells/well (DU145, HeLa-MaTu-ADR), 3,000 cells/well (NCI-H460, HeLa), 2,500 cells/well (A2780), 1,500 cells/well (Caco-2), or 1,000 cells/well (B16F10) in a 96-well multititer plate in 200 μL of their respective growth medium supplemented 10% fetal calf serum. After 24 hours, the cells of one plate (zero-point plate) were stained with crystal violet (see below), while the medium of the other plates was replaced by fresh culture medium (200 μl), to which the test substances were added in various concentrations (0 μM, as well as in the range of 0.001-10 μM; the final concentration of the solvent dimethyl sulfoxide was 0.5%). The cells were incubated for 4 days in the presence of test substances. Cell proliferation was determined by staining the cells with crystal violet: the cells were fixed by adding 20 μl/measuring point of an 11% glutaric aldehyde solution for 15 minutes at room temperature. After three washing cycles of the fixed cells with water, the plates were dried at room temperature. The cells were stained by adding 100 μl/measuring point of a 0.1% crystal violet solution (pH 3.0). After three washing cycles of the stained cells with water, the plates were dried at room temperature. The dye was dissolved by adding 100 μl/measuring point of a 10% acetic acid solution. The extinction was determined by photometry at a wavelength of 595 nm. The change of cell number, in percent, was calculated by normalization of the measured values to the extinction values of the zero-point plate (=0%) and the extinction of the untreated (0 μm) cells (=100%). The IC50 values (inhibitory concentration at 50% of maximal effect) were determined by means of a 4 parameter fit.

The subject of assay [2] is Caco-2 cells. Nature of the assay: Proliferation assay (Method 3), Caco-2. In kind it is cell-based. Particulars: Caco-2, 96 h; human colorectal carcinoma, 4 days, crystal violet; read-out: Inhibition of Caco-2 cell proliferation IC50. The protocol: as §1
In assay [3] the test system is HeLa-MaTu-ADR cells. Nature of the assay: Proliferation assay (Method 3), HeLa-MaTu-ADR. In kind it is cell-based. Conditions: 96 h; multidrug-resistant human cervical carcinoma, 4 days, crystal violet; read-out: Inhibition of HeLa-MaTu-ADR cell proliferation IC50. The protocol:
as §1

In assay [4] the target is T1, CDK9/CycT1 (Homo sapiens, UniProt P50750).
T1 construct: Recombinant full-length His-tagged human CDK9 and CycT1; His; purchased Invitrogen PV4131; host or cells: insect cells
T1 sequence (P50750 whole entry): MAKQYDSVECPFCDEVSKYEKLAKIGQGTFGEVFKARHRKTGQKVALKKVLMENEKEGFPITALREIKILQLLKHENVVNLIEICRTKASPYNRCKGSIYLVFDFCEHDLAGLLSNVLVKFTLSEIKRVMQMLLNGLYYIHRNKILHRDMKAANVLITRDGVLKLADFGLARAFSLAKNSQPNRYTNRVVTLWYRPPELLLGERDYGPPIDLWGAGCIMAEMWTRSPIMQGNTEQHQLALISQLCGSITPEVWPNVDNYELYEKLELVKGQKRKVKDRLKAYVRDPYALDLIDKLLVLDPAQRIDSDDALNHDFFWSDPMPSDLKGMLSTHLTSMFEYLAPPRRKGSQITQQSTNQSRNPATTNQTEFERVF
T1 sequence (O60563 whole entry partner): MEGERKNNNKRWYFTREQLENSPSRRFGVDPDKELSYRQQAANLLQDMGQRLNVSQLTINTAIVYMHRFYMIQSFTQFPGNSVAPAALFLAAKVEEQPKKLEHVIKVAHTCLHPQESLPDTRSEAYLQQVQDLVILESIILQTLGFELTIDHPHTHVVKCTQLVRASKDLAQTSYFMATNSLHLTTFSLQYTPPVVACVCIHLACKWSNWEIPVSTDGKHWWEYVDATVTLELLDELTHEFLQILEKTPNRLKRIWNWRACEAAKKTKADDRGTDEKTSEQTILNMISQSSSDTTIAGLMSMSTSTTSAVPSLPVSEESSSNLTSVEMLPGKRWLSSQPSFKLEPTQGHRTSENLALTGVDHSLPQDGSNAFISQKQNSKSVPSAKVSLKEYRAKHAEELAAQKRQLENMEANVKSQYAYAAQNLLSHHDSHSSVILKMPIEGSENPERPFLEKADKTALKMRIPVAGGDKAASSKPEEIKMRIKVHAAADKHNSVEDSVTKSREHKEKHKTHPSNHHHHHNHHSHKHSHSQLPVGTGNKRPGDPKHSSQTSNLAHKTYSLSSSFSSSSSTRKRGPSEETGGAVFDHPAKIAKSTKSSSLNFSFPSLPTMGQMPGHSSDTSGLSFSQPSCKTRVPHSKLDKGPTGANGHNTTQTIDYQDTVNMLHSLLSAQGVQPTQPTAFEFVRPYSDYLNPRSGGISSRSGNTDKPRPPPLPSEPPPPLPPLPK
Put plainly: CDK9/CycT1 kinase assay (Method 1a, TR-FRET, 10 μM ATP). Type of assay: biochemical. Conditions: for IC50: Method 1a, 10 μM ATP; for Selectivity CDK9/CDK2: according to Methods 1a and 2a (ratio of CDK2 IC50 to CDK9 IC50). From the text:
1a. CDK9/CycT1 Kinase Assay:
CDK9/CycT1-inhibitory activity of compounds of the present invention was quantified employing the CDK9/CycT1 TR-FRET assay as described in the following paragraphs:
Recombinant full-length His-tagged human CDK9 and CycT1, expressed in insect cells and purified by Ni-NTA affinity chromatography, were purchased from Invitrogen (Cat. No PV4131). As substrate for the kinase reaction biotinylated peptide biotin-Ttds-YISPLKSPYKISEG (C-terminus in amid form) was used which can be purchased e.g. form the company JERINI Peptide Technologies (Berlin, Germany). For the assay 50 n1 of a 100 fold concentrated solution of the test compound in DMSO was pipetted into a black low volume 384 well microtiter plate (Greiner Bio-One, Frickenhausen, Germany), 2 μl of a solution of CDK9/CycT1 in aqueous assay buffer [50 mM Tris/HCl pH 8.0, 10 mM MgCl2, 1.0 mM dithiothreitol, 0.1 mM sodium ortho-vanadate, 0.01% (v/v) Nonidet-P40 (Sigma)] were added and the mixture was incubated for 15 min at 22° C. to allow pre-binding of the test compounds to the enzyme before the start of the kinase reaction. Then the kinase reaction was started by the addition of 3 μl of a solution of adenosine-tri-phosphate (ATP, 16.7 μM=>final conc. in the 5 μl assay volume is 10 μM) and substrate (1.67 μM=>final conc. in the 5 μl assay volume is 1 μM) in assay buffer and the resulting mixture was incubated for a reaction time of 25 min at 22° C. The concentration of CDK9/CycT1 was adjusted depending of the activity of the enzyme lot and was chosen appropriate to have the assay in the linear range, typical concentrations were in the range of 1 μg/mL. The reaction was stopped by the addition of 5 μl of a solution of TR-FRET detection reagents (0.2 μM streptavidine-XL665 [Cisbio Bioassays, Codolet, France] and 1 nM anti-RB(pSer807/pSer811)-antibody from BD Pharmingen [#558389] and 1.2 nM LANCE EU-W1024 labeled anti-mouse IgG antibody [Perkin-Elmer, product no. AD0077]) in an aqueous EDTA-solution (100 mM EDTA, 0.2% (w/v) bovine serum albumin in 100 mM HEPES/NaOH pH 7.0).
The resulting mixture was incubated 1 h at 22° C. to allow the formation of complex between the phosphorylated biotinylated peptide and the detection reagents. Subsequently the amount of phosphorylated substrate was evaluated by measurement of the resonance energy transfer from the Eu-chelate to the streptavidine-XL. Therefore, the fluorescence emissions at 620 nm and 665 nm after excitation at 350 nm was measured in a HTRF reader, e.g. a Rubystar (BMG Labtechnologies, Offenburg, Germany) or a Viewlux (Perkin-Elmer). The ratio of the emissions at 665 nm and at […] was taken as the measure for the amount of phosphorylated substrate. The data were normalised (enzyme reaction without inhibitor=0% inhibition, all other assay components but no enzyme=100% inhibition).

The subject of assay [5] is B16F10 cells. Put plainly: Proliferation assay (Method 3), B16F10. In kind it is cell-based. Conditions: B16-F10, 96 h; mouse melanoma, 4 days, crystal violet; read-out: Inhibition of B16F10 cell proliferation IC50. The procedure:
as §1

The subject of assay [6] is NCI-H460 cells. Put plainly: Proliferation assay (Method 3), NCI-H460. In kind it is cell-based. Conditions: NCI-H460, 96 h; human non-small cell lung carcinoma, 4 days, crystal violet; read-out: Inhibition of NCI-H460 cell proliferation IC50. The protocol: as §1

For `CS(=O)(=O)Cc1ccnc(Nc2cc(-c3ccc(F)c4ccoc34)c(F)cn2)c1` [Example 1, 5-Fluoro-4-(4-fluoro-1-benzofuran-7-yl)-N-{4-[(methylsulfonyl)methyl]pyridin-2-yl}pyridin-2-amine], the IC50 in assay [1] came to 6 nM; in assay [2], 40 nM; in assay [3] it was 36 nM; in assay [4] it was 3 nM; in assay [5], 70 nM; in assay [6] it was 37 nM. For the same compound, in assay [4], the “Selectivity CDK9/CDK2” value was determined as 29.

`CS(=O)(=O)Cc1ccnc(Nc2cc(-c3cccc4ccoc34)c(F)cn2)c1` [Example 5, 4-(1-Benzofuran-7-yl)-5-fluoro-N-{4-[(methylsulfonyl)methyl]pyridin-2-yl}pyridin-2-amine]: the IC50 was 68 nM in assay [1]; 61 nM in assay [2]; 68 nM in assay [3]; 4 nM in assay [4]; 120 nM in assay [5]; 91 nM in assay [6]. Moreover, in assay [4], the “Selectivity CDK9/CDK2” value was determined as 17.

As for `Cc1cc(CS(C)(=O)=O)cc(Nc2cc(-c3ccc(F)c4ccoc34)c(F)cn2)n1` [Example 3, 5-Fluoro-4-(4-fluoro-1-benzofuran-7-yl)-N-{6-methyl-4-[(methylsulfonyl)methyl]pyridin-2-yl}pyridin-2-amine], the IC50 was 12 nM in assay [1]; 12 nM in assay [2]; 18 nM in assay [3]; 32 nM in assay [5]; 19 nM in assay [6].

On to `CS(=O)(=O)Cc1cc(Nc2cc(-c3ccc(F)c4ccoc34)c(F)cn2)nc(C(F)(F)F)c1` [Example 4, 5-Fluoro-4-(4-fluoro-1-benzofuran-7-yl)-N-{4-[(methylsulfonyl)methyl]-6-(trifluoromethyl)pyridin-2-yl}pyridin-2-amine], for which the IC50 in assay [1] stood at 13 nM; in assay [2], 14 nM; in assay [3] it was 23 nM; in assay [5], 31 nM; in assay [6], 33 nM.

Take `CS(=O)(=O)Cc1cc(F)nc(Nc2cc(-c3ccc(F)c4ccoc34)c(F)cn2)c1` [Example 2, 5-Fluoro-4-(4-fluoro-1-benzofuran-7-yl)-N-{6-fluoro-4-[(methylsulfonyl)methyl]pyridin-2-yl}pyridin-2-amine]: the IC50 in assay [1] was 40 nM; in assay [2], 37 nM; in assay [3] it was 24 nM; in assay [4] it was 4 nM; in assay [5], 59 nM; in assay [6], 48 nM. Further, the “Selectivity CDK9/CDK2” value in assay [4] was found to be 18.
